The source of these data is US7846928B2, “Substituted pyrazolopyridines and salts thereof, pharmaceutical compositions comprising same, methods of preparing same and uses of same” (Bayer Schering Pharma AG, priority 2006, dated 2010).

Where only a bound is given, the exact number is not on record here.

Tie2, sequence (Q02763 23-1124): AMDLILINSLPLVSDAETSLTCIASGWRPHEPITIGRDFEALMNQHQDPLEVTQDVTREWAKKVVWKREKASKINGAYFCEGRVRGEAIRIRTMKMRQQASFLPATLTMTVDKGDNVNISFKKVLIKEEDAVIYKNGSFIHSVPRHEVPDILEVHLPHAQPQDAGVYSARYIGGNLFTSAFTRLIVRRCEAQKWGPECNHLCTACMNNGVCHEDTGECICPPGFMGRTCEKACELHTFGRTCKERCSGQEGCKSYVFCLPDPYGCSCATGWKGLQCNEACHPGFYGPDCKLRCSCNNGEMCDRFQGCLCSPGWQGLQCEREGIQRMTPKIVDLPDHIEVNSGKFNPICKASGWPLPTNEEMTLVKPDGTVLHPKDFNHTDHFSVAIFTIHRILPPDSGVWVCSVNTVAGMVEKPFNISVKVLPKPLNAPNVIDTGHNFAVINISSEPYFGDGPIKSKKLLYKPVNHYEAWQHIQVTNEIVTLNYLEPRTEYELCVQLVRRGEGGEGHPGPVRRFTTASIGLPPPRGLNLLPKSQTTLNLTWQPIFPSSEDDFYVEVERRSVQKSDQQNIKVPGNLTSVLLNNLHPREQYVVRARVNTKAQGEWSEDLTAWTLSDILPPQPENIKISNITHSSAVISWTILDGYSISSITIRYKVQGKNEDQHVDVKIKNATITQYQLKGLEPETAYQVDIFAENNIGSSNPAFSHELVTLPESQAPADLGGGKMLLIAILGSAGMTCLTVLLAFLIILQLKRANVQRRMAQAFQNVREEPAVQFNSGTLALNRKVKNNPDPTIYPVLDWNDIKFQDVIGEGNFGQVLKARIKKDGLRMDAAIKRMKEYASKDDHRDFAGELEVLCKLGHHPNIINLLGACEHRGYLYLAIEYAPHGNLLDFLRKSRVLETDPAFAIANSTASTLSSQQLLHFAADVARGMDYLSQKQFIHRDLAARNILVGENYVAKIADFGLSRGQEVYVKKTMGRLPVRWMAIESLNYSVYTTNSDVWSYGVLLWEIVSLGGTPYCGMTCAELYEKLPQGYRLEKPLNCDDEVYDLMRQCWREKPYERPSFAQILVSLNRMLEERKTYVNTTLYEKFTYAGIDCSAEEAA

This assay addresses Tie2 (Homo sapiens, UniProt Q02763). Put plainly: Tie2 ELISA assay (assay 1): cellular Tie2 autophosphorylation in Tie2-transfected CHO cells stimulated by angiopoietin-2. Format: cell-based. Further details: expressed in transfected cells; host or cells: CHO (DHFR-deficient), stably transfected: CHO Tie2/DHFR. The settings on record: CHO Tie2/DHFR cells, Ang2 stimulated, Tie2 autophosphorylation sandwich-ELISA; pIC50 = -log IC50 molar; read-out: Tie 2 activity (assay 1). The protocol:
Cellular activity of compounds of the present invention as inhibitors of Tie2 kinase activity was measured employing a Tie2 ELISA assay as described in the following paragraphs. Herein CHO cell-cultures, which are stably transfected by known techniques with Tie2 using DHFR deficiency as selection marker, are stimulated by angiopoietin-2. The specific autophosphorylation of Tie2 receptors is quantified with a sandwich-ELISA using anti-Tie2 antibodies for catch and anti-phosphotyrosine antibodies coupled to HRP for detection.
• 96 well tissue culture plate, sterile, Greiner • 96 well FluoroNunc plate MaxiSorp Surface C, Nunc • 96 well plate polypropylene for compound dilution in DMSO • CHO Tie2/DHFR (transfected cells) • PBS−; PBS++, DMSO • MEM alpha Medium with Glutamax-I without Ribonucleosides and • Deoxyribonucleosides (Gibco #32561-029) • with 10% FCS after dialysis! and 1% PenStrep • Lysis buffer: 1 Tablet “Complete” protease inhibitor • 1 cap Vanadate (1 mL>40 mg/mL; working solution 2 mM) • ad 50 mL with Duschl-Puffer • pH 7.6 • Anti-Tie2-antibody 1:425 in Coating Buffer pH 9.6 • Stock solution: 1.275 mg/mL>working: 3 μg/mL • PBST: 2 bottles PBS(10×)+10 ml Tween, fill up with VE-water • RotiBlock 1:10 in VE-water • Anti-Phosphotyrosine HRP-Conjugated 1:10000 in 3% TopBlock • 3% TopBlock in PBST • BM Chemiluminescence ELISA Substrate (POD) • solution B1:100 solution A • SF9 cell culture medium • Ang2-Fc in SF9 cell culture medium Cell Experiment: • Dispense 5×10^4 cells/well/98 μL in 96 well tissue culture plate • Incubate at 37° C./5% CO2 • After 24 h add compounds according to desired concentrations • Add also to control and stimulated values without compounds 2 μL DMSO • And mix for a few min at room temperature • Add 100 μL Ang2-Fc to all wells except control, which receives insect medium • Incubate 20 min at 37° C. • Wash 3× with PBS++ • Add 100 μl Lysis buffer/well and shake a couple of min at room temperature • Store lysates at 20° C. before utilizing for the ELISA Performance of Sandwich-ELISA • Coat 96 well FluoroNunc Plate MaxiSorp Surface C with anti-Tie2 mAb • 1:425 in Coating buffer pH 9.6; 100 μL/well overnight at 4° C. • Wash 2× with PBST • Block plates with 250 μL/well RotiBlock 1:10 in VE-water • Incubate for 2 h at room temperature or overnight at 4° C. shaking • Wash 2× in PBST • Add thawed lysates to wells and incubate overnight shaking at 4° C. • Wash 2× with PBST • Add 100 μL/well anti-Phosphotyrosine HRP-Conjugated 1:10000 in 3% • TopBlock (3% TopBlock in PBST) and incubate overnight under shaking • Wash 6× with PBST • Add 100 μL/well BM Chemiluminescence ELISA Substrate (POD) • solutions 1 und 2 (1:100) • Determine luminescence with the LumiCount. Assay 2: Tie-2-Kinase HTRF-Assay without Kinase Preactivation
Take `CCc1cccc(NC(=O)Nc2ccc(-c3cc(C(C)(C)C)nc4[nH]ncc34)cc2)c1` [1.1, 1-[4-(6-tert-Butyl-1H-pyrazolo[3,4-b]pyridin-4-yl)-phenyl]-3-(3-ethylphenyl)-urea]: the IC50 is less than 0.501 µM.
Next, `CC(C)c1cc(-c2ccc(NC(=O)Nc3cccc(C(F)(F)F)c3)cc2)c2cn[nH]c2n1` [1.2, 1-[4-(6-Isopropyl-1H-pyrazolo[3,4-b]pyridin-4-yl)-phenyl]-3-(3-trifluoromethyl-phenyl)-urea]: less than 0.501 µM; `CC(C)c1cc(-c2ccc(NC(=O)Nc3cccc(C(F)(F)F)c3)cc2)c2cnn(C)c2n1` [1.3, 1-[4-(6-Isopropyl-1-methyl-1H-pyrazolo[3,4-b]pyridin-4-yl)-phenyl]-3-(3-trifluoromethyl-phenyl)-urea]: less than 0.501 µM; `Cn1ncc2c(-c3ccc(NC(=O)Nc4cccc(C(F)(F)F)c4)cc3)ccnc21` [1.4, 1-[4-(1-Methyl-1H-pyrazolo[3,4-b]pyridin-4-yl)-phenyl]-3-(3-trifluoromethyl-phenyl)-urea]: less than 0.501 µM.
`Cc1ccc(F)c(NC(=O)Nc2ccc(-c3ccnc4c3cnn4C)cc2)c1` [1.7, 1-(2-Fluoro-5-methyl-phenyl)-3-[4-(1-methyl-1H-pyrazolo[3,4-b]pyridin-4-yl)-phenyl]-urea]: the IC50 is less than 0.501 µM.
Next, `Cn1ncc2c(-c3ccc(NC(=O)Nc4cc(C(F)(F)F)ccc4F)cc3)ccnc21` [1.8, 1-(2-Fluoro-5-trifluoromethyl-phenyl)-3-[4-(1-methyl-1H-pyrazolo[3,4-b]-pyridin-4-yl)-phenyl]-urea]: less than 0.501 µM.
Next, `Cc1cccc(NC(=O)Nc2ccc(-c3cc(C(C)(C)C)nc4[nH]ncc34)cc2)c1` [1.11, 1-[4-(6-tert-Butyl-1H-pyrazolo[3,4-b]pyridin-4-yl)-phenyl]-3-m-tolyl-urea]: 0.501 to 1 µM; `CN1CCN(Cc2ccc(NC(=O)Nc3ccc(-c4cc(C(C)(C)C)nc5[nH]ncc45)cc3)cc2C(F)(F)F)CC1` [1.15, 1-[4-(6-tert-Butyl-1H-pyrazolo[3,4-b]pyridin-4-yl)-phenyl]-3-[4-(4-methyl-piperazin-1-ylmethyl)-3-trifluoromethyl-phenyl]-urea]: less than 0.501 µM; `Cc1cc(-c2ccc(NC(=O)Nc3cccc(C(F)(F)F)c3)cc2)c2cn[nH]c2n1` [1.18, 1-[4-(6-Methyl-1H-pyrazolo[3,4-b]pyridin-4-yl)-phenyl]-3-(3-trifluoromethyl-phenyl)-urea]: less than 0.501 µM.
Next, `O=C(Nc1ccc(-c2ccnc3[nH]ncc23)cc1)Nc1cccc(C(F)(F)F)c1` [1.20, 1-[4-(1H-Pyrazolo[3,4-b]pyridin-4-yl)-phenyl]-3-(3-trifluoromethyl-phenyl)-urea]: less than 0.501 µM.
`Cc1ccc(F)c(NC(=O)Nc2ccc(-c3ccnc4[nH]ncc34)cc2)c1` [1.22, 1-(2-Fluoro-5-methyl-phenyl)-3-[4-(1H-pyrazolo[3,4-b]pyridin-4-yl)-phenyl]-urea]: the IC50 is less than 0.501 µM.
For the compound `CN1CCC(Oc2ccc(NC(=O)Nc3ccc(-c4ccnc5c4cnn5C)cc3)cc2C(F)(F)F)CC1` [1.23, 1-[4-(1-Methyl-piperidin-4-yloxy)-3-trifluoromethyl-phenyl]-3-[4-(1-methyl-1H-pyrazolo[3,4-b]pyridin-4-yl)-phenyl]-urea], the IC50 was less than 0.501 µM.
Next, `CN1CCN(Cc2ccc(NC(=O)Nc3ccc(-c4ccnc5c4cnn5C)cc3)cc2C(F)(F)F)CC1` [1.24, 1-[4-(4-Methyl-piperazin-1-ylmethyl)-3-trifluoromethyl-phenyl]-3-[4-(1-methyl-1H-pyrazolo[3,4-b]pyridin-4-yl)-phenyl]-urea]: less than 0.501 µM; `CN(C)C(=O)C1(c2cc(-c3ccc(NC(=O)Nc4cccc(C(F)(F)F)c4)cc3)c3cnn(C)c3n2)CC1` [1.26, 1-(1-Methyl-4-{4-[3-(3-trifluoromethyl-phenyl)-ureido]-phenyl}-1H-pyrazolo[3,4-b]pyridin-6-yl)-cyclopropane-carboxylic acid dimethylamide]: less than 0.501 µM.
Take `Cc1ccc(F)c(NC(=O)Nc2ccc(-c3cc(C4(C(=O)N(C)C)CC4)nc4c3cnn4C)cc2)c1` [1.29, 1-(4-{4-[3-(2-Fluoro-5-methyl-phenyl)-ureido]-phenyl}-1-methyl-1H-pyrazolo[3,4-b]pyridin-6-yl)-cyclopropane-carboxylic acid dimethylamide]: the IC50 was less than 0.501 µM.
Turning to `CN1CCN(Cc2ccc(NC(=O)Nc3ccc(-c4ccnc5[nH]ncc45)cc3)cc2C(F)(F)F)CC1` [1.33, 1-[4-(4-Methyl-piperazin-1-yl-methyl)-3-trifluoromethyl-phenyl]-3-[4-(1H-pyrazolo[3,4-b]pyridin-4-yl)-phenyl]-urea], the IC50 is less than 0.501 µM.
The value for `Cn1ncc2c(-c3ccc(NC(=O)Nc4cccc(C(F)(F)F)c4)cc3)cc(C3CCC3)nc21` [1.37, 1-[4-(6-Cyclobutyl-1-methyl-1H-pyrazolo[3,4-b]pyridin-4-yl)-phenyl]-3-(3-trifluoromethyl-phenyl)-urea] was less than 0.501 µM; that for `Cn1ncc2c(-c3ccc(NC(=O)Nc4cccc(C(F)(F)F)c4)cc3)cc(C3CCCCC3)nc21` [1.38, 1-[4-(6-Cyclohexyl-1-methyl-1H-pyrazolo[3,4-b]pyridin-4-yl)-phenyl]-3-(3-trifluoromethyl-phenyl)-urea] was less than 0.501 µM.
Consider `Cc1cc(-c2ccc(NC(=O)Nc3cc(F)cc(C(F)(F)F)c3)cc2)c2cnn(C)c2n1` [2.4, 1-[4-(1,6-Dimethyl-1H-pyrazolo[3,4-b]pyridin-4-yl)-phenyl]-3-(3-fluoro-5-trifluoromethyl-phenyl)-urea], for which the IC50 was less than 0.501 µM.
Next, `Cc1cc(-c2ccc(NC(=O)Nc3ccc(F)c(C(F)(F)F)c3)cc2)c2cnn(C)c2n1` [2.5, 1-[4-(1,6-Dimethyl-1H-pyrazolo[3,4-b]pyridin-4-yl)-phenyl]-3-(4-fluoro-3-trifluoromethyl-phenyl)-urea]: 0.501 to 1 µM.
On to `COc1ccc(C(F)(F)F)cc1NC(=O)Nc1ccc(-c2cc(C)nc3c2cnn3C)cc1` [2.7, 1-[4-(1,6-Dimethyl-1H-pyrazolo[3,4-b]pyridin-4-yl)-phenyl]-3-(2-methoxy-5-trifluoromethyl-phenyl)-urea], for which the IC50 was less than 0.501 µM.
On to `Cn1ncc2c(-c3ccc(NC(=O)Nc4cccc(C(F)(F)F)c4)cc3)cc(CN3CCOCC3)nc21` [3.2, 1-[4-(1-Methyl-6-morpholin-4-ylmethyl-1H-pyrazolo[3,4-b]pyridin-4-yl)-phenyl]-3-(3-trifluoromethyl-phenyl)-urea], for which the IC50 was less than 0.501 µM.
The value for `CCc1cccc(NC(=O)Nc2ccc(-c3cc(CN4CCOCC4)nc4c3cnn4C)cc2)c1` [3.4, 1-(3-Ethyl-phenyl)-3-[4-(1-methyl-6-morpholin-4-ylmethyl-1H-pyrazolo[3,4-b]pyridin-4-yl)-phenyl]-urea] was less than 0.501 µM.
In the case of `Cc1ccc(F)c(NC(=O)Nc2ccc(-c3cc(CN4CCOCC4)nc4c3cnn4C)cc2)c1` [3.5, 1-(2-Fluoro-5-methyl-phenyl)-3-[4-(1-methyl-6-morpholin-4-ylmethyl-1H-pyrazolo[3,4-b]pyridin-4-yl)-phenyl]-urea], the IC50 was less than 0.501 µM.
